Assay results taken from US5807535A, “Metal complexes of hydroxyaryl containing aminocarboxylic acid chelating agents” (Australian Nuclear Science & Technology Organisation, priority 1992, dated 1998).

Assays:
[1] = Biodistribution of 67Ga complexes in mice; assay type: in vivo, balb/c mice
Description: To ligand (50 μL, 10 mg/mL, 0.2 M NaOAc, […]) was added ^67 Ga citrate (18.5 MBq) and the resultant mixture diluted to 1 mL (0.2 M NaOAc, pH 7). The pH was adjusted to 12 with 1 M NaOH (20 μL) and heated at 40° C. for 40 min. The final volume was adjusted (to 5 mL) with saline and sterilised by filtering through a 0.22 μm filter.
Each animal was injected via tail vein with ^67 Ga complex (100 μL, ~3.7×10^5 Bq). Animals were sacrificed at various time intervals (5 animals per time point/6 time points). Data are illustrated in FIG. 26-30 and in Tables 13-17.
Each ^67 Ga-ligand complex has been evaluated in balb/c mice. […] (see FIG. 26-30).

[2] = Biodistribution of 99mTc complexes in mice; assay type: in vivo, Balb/c mice
Text: A series of derivatives incorporating carboxyl and phenolate donor groups (1-6) were synthesised by literature method and their radiolabelling characteristic and biological behaviour evaluated. Initial work involved an investigation of radiochemical properties of the ^99m Tc complexes of the ligands and their biodistribution in rats and mice (see Tables 1-6 and 8-12).
A typical method of radiolabelling of the chelator was achieved by dissolving the chelator in a basic solution of saline. The pH was then adjusted to approx. 6 with HCl. Excess stannous chloride was added to the resultant solution followed by one equivalent volume of sodium ^99m TcO4 (10-50 mCi/ml). Final concentration of the chelator was approx. 1 mg/ml. The efficacy of labelling was determined by ITLC-SG. For each product only one main radiochemical species was observed. Each complex was diluted to 15 μCi/100 μl with saline. […] (See FIGS. 1A and 1B).

Structure (SMILES): O=C(O)CN(CCN(CC(=O)O)CC(=O)Nc1ccc(Cl)cc1O)CC(=O)Nc1ccc(Cl)cc1O [Compound 2]
- biodistribution bone ([1]; 1 min): 6.16 % ID
- biodistribution kidney ([1]; 1 min): 9.54 % ID
- biodistribution liver ([1]; 1 min): 24.9 % ID
- biodistribution lungs ([1]; 1 min): 1.79 % ID
- biodistribution muscle ([1]; 1 min): 20.55 % ID
- biodistribution skin ([1]; 1 min): 11.55 % ID
- biodistribution spleen ([1]; 1 min): 0.29 % ID
- biodistribution bone ([1]; 3 min): 2.82 % ID
- biodistribution kidney ([1]; 3 min): 4.62 % ID
- biodistribution liver ([1]; 3 min): 35.52 % ID
- biodistribution lungs ([1]; 3 min): 0.56 % ID
- biodistribution muscle ([1]; 3 min): 8.63 % ID
- biodistribution skin ([1]; 3 min): 9.27 % ID
- biodistribution spleen ([1]; 3 min): 0.1 % ID
- biodistribution bone ([1]; 5 min): 2.13 % ID
- biodistribution kidney ([1]; 5 min): 3.52 % ID
- biodistribution liver ([1]; 5 min): 33.09 % ID
- biodistribution lungs ([1]; 5 min): 0.41 % ID
- biodistribution muscle ([1]; 5 min): 5.50 % ID
- biodistribution skin ([1]; 5 min): 8.04 % ID
- biodistribution spleen ([1]; 5 min): 0.07 % ID
- biodistribution bone ([1]; 10 min): 0.74 % ID
- biodistribution kidney ([1]; 10 min): 1.00 % ID
- biodistribution liver ([1]; 10 min): 23.34 % ID
- biodistribution lungs ([1]; 10 min): 0.12 % ID
- biodistribution muscle ([1]; 10 min): 2.00 % ID
- biodistribution skin ([1]; 10 min): 3.80 % ID
- biodistribution spleen ([1]; 10 min): 0.02 % ID
- biodistribution bone ([1]; 30 min): 0.50 % ID
- biodistribution kidney ([1]; 30 min): 0.21 % ID
- biodistribution liver ([1]; 30 min): 3.7 % ID
- biodistribution muscle ([1]; 30 min): 2.00 % ID
- biodistribution skin ([1]; 30 min): 0.88 % ID
- biodistribution spleen ([1]; 30 min): 0.02 % ID
- biodistribution bone ([1]; 120 min): 0.38 % ID
- biodistribution kidney ([1]; 120 min): 0.01 % ID
- biodistribution liver ([1]; 120 min): 0.92 % ID
- biodistribution muscle ([1]; 120 min): 0.31 % ID
- biodistribution skin ([1]; 120 min): 0.17 % ID
- biodistribution spleen ([1]; 120 min): 0 % ID
- biodistribution GIT ([2]; 1 min): 3.74 % Injected dose
- biodistribution blood ([2]; 1 min): 23.14 % Injected dose
- biodistribution bone ([2]; 1 min): 7.88 % Injected dose
- biodistribution heart ([2]; 1 min): 0.49 % Injected dose
- biodistribution kidney ([2]; 1 min): 8.04 % Injected dose
- biodistribution liver ([2]; 1 min): 14.68 % Injected dose
- biodistribution lungs ([2]; 1 min): 1.36 % Injected dose
- biodistribution muscle ([2]; 1 min): 19.67 % Injected dose
- biodistribution skin ([2]; 1 min): 13.37 % Injected dose
- biodistribution spleen ([2]; 1 min): 0.19 % Injected dose
- biodistribution stomach ([2]; 1 min): 0.67 % Injected dose
- biodistribution tail ([2]; 1 min): 4.05 % Injected dose
- biodistribution urine ([2]; 1 min): 0.09 % Injected dose
- biodistribution GIT ([2]; 3 min): 4.86 % Injected dose
- biodistribution blood ([2]; 3 min): 14.96 % Injected dose
- biodistribution bone ([2]; 3 min): 6.29 % Injected dose
- biodistribution heart ([2]; 3 min): 0.34 % Injected dose
- biodistribution kidney ([2]; 3 min): 10.44 % Injected dose
- biodistribution liver ([2]; 3 min): 14.52 % Injected dose
- biodistribution lungs ([2]; 3 min): 1.19 % Injected dose
- biodistribution muscle ([2]; 3 min): 14.89 % Injected dose
- biodistribution skin ([2]; 3 min): 13.1 % Injected dose
- biodistribution spleen ([2]; 3 min): 0.16 % Injected dose
- biodistribution stomach ([2]; 3 min): 0.998 % Injected dose
- biodistribution tail ([2]; 3 min): 6.89 % Injected dose
- biodistribution urine ([2]; 3 min): 2.78 % Injected dose
- biodistribution GIT ([2]; 5 min): 3.38 % Injected dose
- biodistribution blood ([2]; 5 min): 7.4 % Injected dose
- biodistribution bone ([2]; 5 min): 2.99 % Injected dose
- biodistribution heart ([2]; 5 min): 0.22 % Injected dose
- biodistribution kidney ([2]; 5 min): 5.45 % Injected dose
- biodistribution liver ([2]; 5 min): 7.75 % Injected dose
- biodistribution lungs ([2]; 5 min): 0.72 % Injected dose
- biodistribution muscle ([2]; 5 min): 6.73 % Injected dose
- biodistribution skin ([2]; 5 min): 7.96 % Injected dose
- biodistribution spleen ([2]; 5 min): 0.07 % Injected dose
- biodistribution stomach ([2]; 5 min): 0.6 % Injected dose
- biodistribution tail ([2]; 5 min): 30.12 % Injected dose
- biodistribution urine ([2]; 5 min): 1.06 % Injected dose
- biodistribution GIT ([2]; 10 min): 8.11 % Injected dose
- biodistribution blood ([2]; 10 min): 7.15 % Injected dose
- biodistribution bone ([2]; 10 min): 2.76 % Injected dose
- biodistribution heart ([2]; 10 min): 0.15 % Injected dose
- biodistribution kidney ([2]; 10 min): 5.14 % Injected dose
- biodistribution liver ([2]; 10 min): 7.95 % Injected dose
- biodistribution lungs ([2]; 10 min): 0.53 % Injected dose
- biodistribution muscle ([2]; 10 min): 8.73 % Injected dose
- biodistribution skin ([2]; 10 min): 11.02 % Injected dose
- biodistribution spleen ([2]; 10 min): 0.06 % Injected dose
- biodistribution stomach ([2]; 10 min): 1.3 % Injected dose
- biodistribution tail ([2]; 10 min): 18.31 % Injected dose
- biodistribution urine ([2]; 10 min): 2.67 % Injected dose
- biodistribution GIT ([2]; 30 min): 16.24 % Injected dose
- biodistribution blood ([2]; 30 min): 3.58 % Injected dose
- biodistribution bone ([2]; 30 min): 2.27 % Injected dose
- biodistribution heart ([2]; 30 min): 0.09 % Injected dose
- biodistribution kidney ([2]; 30 min): 4 % Injected dose
- biodistribution liver ([2]; 30 min): 5.71 % Injected dose
- biodistribution lungs ([2]; 30 min): 0.43 % Injected dose
- biodistribution muscle ([2]; 30 min): 5.48 % Injected dose
- biodistribution skin ([2]; 30 min): 5.58 % Injected dose
- biodistribution spleen ([2]; 30 min): 0.05 % Injected dose
- biodistribution stomach ([2]; 30 min): 2.06 % Injected dose
- biodistribution tail ([2]; 30 min): 7.67 % Injected dose
- biodistribution urine ([2]; 30 min): 3.84 % Injected dose
